Columns and labels:
Assay in all cases: relative viability (nuclei count vs DMSO), 5 days (fraction); higher = more cells survive
[1] = compound: CN1CCN(CC1)C2=CC(=C(C=C2)NC3=NC=C4C(=N3)N(C5=CC=CC=C5C(=O)N4C)C)OC [XMD8-85] + C[C@@H](Oc1cc(-c2cnn(C3CCNCC3)c2)cnc1N)c1c(Cl)ccc(F)c1Cl [Crizotinib] (partner 1 µM)
Procedure, shortened: (§1)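 For relative viability, nuclei counts in treated wells were divided by those in vehicle wells. Lung cancer cell lines had been pin-tool dosed in 1536-well plates the day after seeding and cultured for 5 days, then fixed and stained in one step (final 0.05% Triton X-100, 1% formaldehyde, 1 ug/ml Hoechst) and imaged at 4×. Doses were one drug alone or a fixed anchor-drug dose plus five library-drug doses (not always all listed) in √10 steps, and values are duplicate-plate medians.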

[2] = compound: CN1CCN(CC1)C2=CC(=C(C=C2)NC3=NC=C4C(=N3)N(C5=CC=CC=C5C(=O)N4C)C)OC [XMD8-85] + C[C@]1(O)C[C@@H](c2nc(-c3ccc4ccc(-c5ccccc5)nc4c3)c3c(N)nccn32)C1 [Linsitinib] (partner 1 µM)
Procedure, shortened: as §1

[3] = compound: O=C(O)C(Cc1ccccc1[N+](=O)[O-])=NNc1nc(-c2ccc(Cl)c(Cl)c2)cs1 (mixture of isomers) [4EGI-1] + CC(=O)c1c(C)c2cnc(Nc3ccc(N4CCNCC4)cn3)nc2n(C2CCCC2)c1=O [Palbociclib] (partner 0.5 µM)
Procedure, shortened: as §1

[4] = compound: O=C(O)C(Cc1ccccc1[N+](=O)[O-])=NNc1nc(-c2ccc(Cl)c(Cl)c2)cs1 (mixture of isomers) [4EGI-1] + Nc1ncn([C@H]2C[C@H](O)[C@@H](CO)O2)c(=O)n1 [Decitabine] (partner 2 µM)
Procedure, shortened: as §1

| Cell Line | relative viability ([1]; first compound 0.08 µM) | relative viability ([1]; first compound 0.253 µM) | relative viability ([1]; first compound 0.8 µM) | relative viability ([1]; first compound 2.53 µM) | relative viability ([1]; first compound 8 µM) | relative viability ([2]; first compound 0.08 µM) | relative viability ([2]; first compound 0.253 µM) | relative viability ([2]; first compound 0.8 µM) | relative viability ([2]; first compound 2.53 µM) | relative viability ([2]; first compound 8 µM) | relative viability ([3]; first compound 0.5 µM) | relative viability ([3]; first compound 1.581 µM) | relative viability ([3]; first compound 5 µM) | relative viability ([3]; first compound 15.81 µM) | relative viability ([3]; first compound 50 µM) | relative viability ([4]; first compound 0.5 µM) | relative viability ([4]; first compound 1.581 µM) | relative viability ([4]; first compound 5 µM) | relative viability ([4]; first compound 15.81 µM) | relative viability ([4]; first compound 50 µM) |
| --- | --- | --- | --- | --- | --- | --- | --- | --- | --- | --- | --- | --- | --- | --- | --- | --- | --- | --- | --- | --- |
| NCI-H727 | 0.78 | 0.777 | 0.755 | 0.595 | 0.358 | 0.259 | 0.314 | 0.308 | 0.231 | 0.215 | 0.689 | 0.617 | 0.641 | 0.604 | 0.62 | 0.731 | 0.854 | 0.858 | 0.808 | 0.606 |
| LCLC-103H | 0.973 | 1.07 | 1.14 | 1.07 | 0.761 | 1.05 | 1.03 | 1.12 | 1.19 | 0.857 | 0.495 | 0.49 | 0.503 | 0.457 | 0.347 | 0.778 | 0.733 | 0.688 | 0.666 | 0.458 |
| ABC-1 | 1.3 | 0.882 | 1.41 | 0.994 | 0.49 | 0.825 | 0.777 | 0.755 | 0.681 | 0.406 | 0.73 | – | 0.738 | 0.527 | 0.249 | 1.28 | – | 1.12 | 1.23 | 0.482 |
| NCI-H3122 | 0.261 | 0.258 | 0.274 | 0.329 | 0.331 | 1.03 | 0.95 | 1.03 | 1.06 | 1.09 | 0.191 | 0.158 | 0.152 | 0.227 | 0.199 | 0.452 | 0.487 | 0.454 | 0.521 | 0.351 |
| NCI-H1648 | – | – | – | – | – | – | – | – | – | – | 0.271 | 0.232 | 0.314 | 0.275 | 0.253 | 0.462 | 0.501 | 0.518 | 0.537 | 0.416 |
| NCI-H1703 | – | 0.586 | 0.649 | 0.47 | 0.315 | 0.496 | 1.1 | – | 0.773 | 0.641 | – | – | – | – | – | – | – | – | – | – |
| HOP-62 | 1.04 | 1.07 | 0.951 | 0.835 | 0.724 | 1.15 | 0.966 | 0.87 | 0.814 | – | 0.449 | 0.416 | 0.489 | 0.505 | 0.319 | 0.272 | 0.199 | 0.215 | 0.202 | 0.183 |
| NCI-H2405 | 0.829 | 0.815 | 0.769 | 0.85 | 0.665 | – | 0.912 | 0.951 | 0.735 | 0.739 | 0.606 | – | 0.508 | 0.55 | 0.329 | 0.791 | – | 0.755 | 0.734 | 0.478 |
| LXF-289 | 0.787 | 0.798 | 0.809 | 0.804 | 0.658 | 0.916 | 0.927 | 0.964 | 1.01 | 0.883 | 0.603 | 0.602 | 0.582 | 0.553 | 0.518 | 0.436 | 0.346 | 0.391 | 0.359 | 0.287 |
| NCI-H1355 | 1.16 | 1.07 | 1.06 | 0.989 | 0.77 | 0.807 | 0.913 | 0.828 | 0.715 | 0.829 | 0.415 | 0.396 | 0.406 | 0.337 | 0.316 | 0.364 | 0.36 | 0.358 | 0.328 | 0.336 |
| NCI-H596 | 0.991 | 0.906 | 0.875 | 0.789 | 0.781 | 0.956 | 1.12 | 1.08 | 0.961 | 0.628 | – | – | – | – | – | 1.01 | 1.11 | 1.16 | 0.942 | 0.569 |
| NCI-H1975 | 1.08 | 0.827 | 1.07 | 0.937 | 0.352 | 1.01 | 0.908 | 0.981 | 1.03 | 0.498 | 0.725 | 0.565 | 0.527 | 0.665 | 0.41 | 0.367 | 0.433 | 0.375 | 0.355 | 0.221 |
| H3255 | 0.808 | 0.853 | 0.822 | 0.902 | 0.52 | 0.994 | 0.872 | 0.955 | 0.946 | 0.629 | 0.306 | 0.316 | 0.305 | 0.315 | 0.302 | 0.684 | – | 0.638 | – | 0.594 |
| COR-L 105 | – | 0.807 | 0.793 | 0.455 | 0.255 | 0.913 | 1.02 | 0.779 | 0.902 | 0.372 | 0.386 | 0.419 | 0.434 | 0.334 | 0.344 | 0.681 | 0.558 | 0.587 | 0.472 | 0.523 |
| EBC-1 | 0.197 | 0.189 | 0.184 | 0.186 | 0.114 | 0.683 | 0.856 | 0.753 | 0.811 | 0.293 | – | – | – | – | – | – | – | – | – | – |
